Experimental data: patent publication US9655904B2, “Substituted benzoazepines as toll-like receptor modulators” (VentiRx Pharmaceuticals, Inc., priority 2009, dated 2017)
pEC50: −log10 of the molar value.

Experiments:
TLR8 = biological target: T1, TLR8 (Homo sapiens, UniProt Q9NR97); assay: PBMC assay for TLR8 (TNFα in supernatants by ELISA); assay type: cell-based; parameters: Peripheral blood mononuclear cells (PBMCs) from human blood were isolated; endogenous in cells; host or cells: human PBMCs; details: human PBMCs incubated with compound overnight, MC50 = concentration at which 50% of maximum induction is seen
T1 sequence (Q9NR97 27-1041): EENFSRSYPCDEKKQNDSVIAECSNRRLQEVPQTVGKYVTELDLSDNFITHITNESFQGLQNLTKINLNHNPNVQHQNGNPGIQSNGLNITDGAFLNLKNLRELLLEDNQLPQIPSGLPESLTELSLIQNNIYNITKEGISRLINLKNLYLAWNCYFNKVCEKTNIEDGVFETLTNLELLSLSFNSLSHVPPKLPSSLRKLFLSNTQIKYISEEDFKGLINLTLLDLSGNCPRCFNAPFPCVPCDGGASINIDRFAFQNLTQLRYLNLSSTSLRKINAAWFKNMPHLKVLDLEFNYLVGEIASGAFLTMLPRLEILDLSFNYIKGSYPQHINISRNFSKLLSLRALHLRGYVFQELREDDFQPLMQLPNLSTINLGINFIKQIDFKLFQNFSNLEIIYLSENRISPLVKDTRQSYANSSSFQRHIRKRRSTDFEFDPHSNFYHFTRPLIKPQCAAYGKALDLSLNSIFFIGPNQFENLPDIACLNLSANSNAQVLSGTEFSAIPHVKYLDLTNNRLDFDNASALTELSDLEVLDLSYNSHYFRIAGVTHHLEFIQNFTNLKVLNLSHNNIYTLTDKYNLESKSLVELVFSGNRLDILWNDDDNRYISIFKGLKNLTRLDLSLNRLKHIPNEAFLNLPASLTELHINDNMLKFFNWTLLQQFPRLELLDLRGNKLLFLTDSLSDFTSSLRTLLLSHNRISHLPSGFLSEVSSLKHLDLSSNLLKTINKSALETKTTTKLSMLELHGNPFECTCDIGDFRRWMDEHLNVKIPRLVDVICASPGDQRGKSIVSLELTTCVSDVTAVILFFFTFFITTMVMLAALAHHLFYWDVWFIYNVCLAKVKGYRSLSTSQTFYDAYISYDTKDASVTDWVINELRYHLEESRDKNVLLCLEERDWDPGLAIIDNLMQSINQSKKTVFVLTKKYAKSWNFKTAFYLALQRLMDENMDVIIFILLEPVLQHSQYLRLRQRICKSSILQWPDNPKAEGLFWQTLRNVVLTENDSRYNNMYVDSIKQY
Method: (§1) Peripheral blood mononuclear cells (PBMCs) from human blood were isolated using BD Vacutainer Cell Preparation Tubes with sodium citrate. Cells were incubated with compound overnight. TLR8 activity was assayed by measuring the amount of TNFα in supernatants by ELISA. TLR7 activity was assayed by measuring the amount of IFNα in supernatants by ELISA (R&D Systems). […] The results of this assay are shown below in Tables 2 and 3.
(§2) MC50 numbers are represented as factors of ten, for example, + indicates an MC50 value of X 10^4, or a value in the tens of thousands of nanomolar (nM range); ++ indicates an MC50 value of X 10^3, or a value in the thousands; +++ indicates an MC50 value of X 10^2, or a value in the hundreds; and ++++ indicates an MC50 value of X 10^1 or 10^0, or a value in the tens or ones.

TLR7 = biological target: T2, TLR7 (Homo sapiens, UniProt Q9NYK1); assay: PBMC assay for TLR7 (IFNα in supernatants by ELISA); assay type: cell-based; parameters: Peripheral blood mononuclear cells (PBMCs) from human blood were isolated; endogenous in cells; host or cells: human PBMCs; details: human PBMCs incubated with compound overnight, MC50 = concentration at which 50% of maximum induction is seen
T2 sequence (Q9NYK1 27-1049): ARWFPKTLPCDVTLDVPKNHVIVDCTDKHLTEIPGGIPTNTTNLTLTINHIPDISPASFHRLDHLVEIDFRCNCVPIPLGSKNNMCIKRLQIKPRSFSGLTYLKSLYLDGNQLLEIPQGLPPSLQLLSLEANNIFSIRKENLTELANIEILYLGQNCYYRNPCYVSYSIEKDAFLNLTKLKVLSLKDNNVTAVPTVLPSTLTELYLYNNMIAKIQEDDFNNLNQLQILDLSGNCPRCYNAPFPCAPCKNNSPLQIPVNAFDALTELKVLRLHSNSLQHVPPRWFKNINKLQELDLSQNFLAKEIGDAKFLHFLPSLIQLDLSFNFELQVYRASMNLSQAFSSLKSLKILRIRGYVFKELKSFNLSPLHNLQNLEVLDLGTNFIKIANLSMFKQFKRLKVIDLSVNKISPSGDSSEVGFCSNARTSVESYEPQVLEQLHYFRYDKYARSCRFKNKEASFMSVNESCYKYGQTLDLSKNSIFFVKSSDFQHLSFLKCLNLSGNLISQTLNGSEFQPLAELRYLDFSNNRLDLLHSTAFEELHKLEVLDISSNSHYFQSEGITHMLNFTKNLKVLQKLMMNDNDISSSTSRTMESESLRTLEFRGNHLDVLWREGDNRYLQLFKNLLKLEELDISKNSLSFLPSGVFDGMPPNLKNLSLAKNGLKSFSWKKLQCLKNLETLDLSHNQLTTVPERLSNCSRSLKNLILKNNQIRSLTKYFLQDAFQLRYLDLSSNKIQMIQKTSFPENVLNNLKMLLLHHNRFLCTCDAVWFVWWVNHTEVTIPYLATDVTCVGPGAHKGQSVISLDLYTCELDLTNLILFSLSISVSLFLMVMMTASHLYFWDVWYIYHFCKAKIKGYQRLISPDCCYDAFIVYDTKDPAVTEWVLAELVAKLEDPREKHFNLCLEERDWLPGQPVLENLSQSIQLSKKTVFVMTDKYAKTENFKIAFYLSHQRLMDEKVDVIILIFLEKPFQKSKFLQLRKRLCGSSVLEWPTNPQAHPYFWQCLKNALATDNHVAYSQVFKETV
Method: as §1, §2

Structure (SMILES) | pEC50 (TLR8) | pEC50 (TLR7)
CCCN(CC1CCNCC1)C(=O)C1=Cc2ccc(-c3ccc(C(=O)N4CCCC4)cc3)cc2N=C(N)C1 [Compound 113, (1E,4E)-2-amino-N-(piperidin-4-ylmethyl)-N-propyl-8-(4-(pyrrolidine-1-carbonyl)phenyl)-3H-benzo[b]azepine-4-carboxamide] | 6.00 to 7.00 | 
NC1=Nc2cc(-c3ccc(C(=O)N4CCCC4)cc3)ccc2C=C(C(=O)NOCc2ccccc2)C1 [Compound 116, (1E,4E)-2-amino-N-(benzyloxy)-8-(4-(pyrrolidine-1-carbonyl)phenyl)-3H-benzo[b]azepine-4-carboxamide] | 5.00 to 6.00 | 4.00 to 5.00
CCCN(OCc1ccccc1)C(=O)C1=Cc2ccc(-c3ccc(C(=O)N4CCCC4)cc3)cc2N=C(N)C1 [Compound 118, (1E,4E)-2-amino-N-(benzyloxy)-N-propyl-8-(4-(pyrrolidine-1-carbonyl)phenyl)-3H-benzo[b]azepine-4-carboxamide] | 7.00 to 9.00 | 
CCOC(=O)C1=Cc2ccc(OCc3ccccc3)cc2N=C(N)C1 [Compound 148, (1E,4E)-ethyl 2-amino-8-(benzyloxy)-3H-benzo[b]azepine-4-carboxylate] | 6.00 to 7.00 | 
CCCN(CC1CCCN1)C(=O)C1=Cc2ccc(-c3ccc(C(=O)N4CCCC4)cc3)cc2N=C(N)C1 (stereo not drawn) [Compound 175, (1E,4E)-2-amino-N-propyl-N-(pyrrolidin-2-ylmethyl)-8-(4-(pyrrolidine-1-carbonyl)phenyl)-3H-benzo[b]azepine-4-carboxamide] | 5.00 to 6.00 | 
CCCN(CCCS(N)(=O)=O)C(=O)C1=Cc2ccc(-c3ccc(C(=O)N4CCCC4)cc3)cc2N=C(N)C1 [Compound 177, (1E,4E)-2-amino-N-propyl-8-(4-(pyrrolidine-1-carbonyl)phenyl)-N-(3-sulfamoylpropyl)-3H-benzo[b]azepine-4-carboxamide] | 6.00 to 7.00 | 
CCCN(CCC)C(=O)C1=Cc2ccc(CCCN3CCOCC3)cc2N=C(N)C1 [Compound 184, (1E,4E)-2-amino-8-(3-morpholinopropyl)-N,N-dipropyl-3H-benzo[b]azepine-4-carboxamide] | 7.00 to 9.00 | 5.00 to 6.00
CCCN(CCC)C(=O)C1=Cc2ccc(OCc3ccccc3)cc2N=C(N)C1 [Compound 185, (1E,4E)-2-amino-8-(benzyloxy)-N,N-dipropyl-3H-benzo[b]azepine-4-carboxamide] | 6.00 to 7.00 | 
CCCN(CCC)C(=O)C1=Cc2ccc(-c3ccc4c(c3)COC4=O)cc2N=C(N)C1 [Compound 198, (1E,4E)-2-Amino-8-(1-oxo-1,3-dihydroisobenzofuran-5-yl)-N,N-dipropyl-3H-benzo[b]azepine-4-carboxamide] | 6.00 to 7.00 | 
CCOC(=O)C1=Cc2ccc(CCCN3CCOCC3)cc2N=C(N)C1 [Compound 200, (1E,4E)-ethyl 2-amino-8-(3-morpholinopropyl)-3H-benzo[b]azepine-4-carboxylate] | 7.00 to 9.00 | 
CCCN(CCC)C(=O)C1=Cc2ccc(-c3ccc(C(=O)NCCCC(=O)OCc4ccccc4)cc3)cc2N=C(N)C1 [Compound 201, benzyl 4-(4-((1E,4E)-2-amino-4-(dipropylcarbamoyl)-3H-benzo[b]azepin-8-yl)benzamido)butanoate] | 6.00 to 7.00 | 
CCCN(CCCO)C(=O)C1=Cc2ccc(-c3ccc(CC(=O)OCc4ccccc4)cc3)cc2N=C(N)C1 [Compound 218, Benzyl 2-(4-((1E,4E)-2-amino-4-((3-hydroxypropyl)(propyl)carbamoyl)-3H-benzo[b]azepin-8-yl)phenyl)acetate] | 6.00 to 7.00 | 
CCCN(CCCO)C(=O)C1=Cc2ccc(-c3ccc4c(c3)COC4=O)cc2N=C(N)C1 [Compound 221, (1E,4E)-2-Amino-N-(3-hydroxypropyl)-8-(1-oxo-1,3-dihydroisobenzofuran-5-yl)-N-propyl-3H-benzo[b]azepine-4-carboxamide] | 6.00 to 7.00 | 

Further lines, results first:

pEC50 (TLR8) | pEC50 (TLR7) | Structure (SMILES)
5.00 to 6.00 | 4.00 to 5.00 | CCCN(CCC)C(=O)C1=Cc2ccc(-c3ccc(CC(=O)O)cc3)cc2N=C(N)C1 [Compound 191, 2-(4-((1E,4E)-2-Amino-4-(dipropylcarbamoyl)-3H-benzo[b]azepin-8-yl)phenyl)acetic acid]
6.00 to 7.00 | 4.00 to 5.00 | CCCN(CCC)C(=O)C1=Cc2ccc(-c3ccc(CC(=O)OCC)cc3)cc2N=C(N)C1 [Compound 192, Ethyl 2-(4-((1E,4E)-2-amino-4-(dipropylcarbamoyl)-3H-benzo[b]azepin-8-yl)phenyl)acetate]
5.00 to 6.00 | 5.00 to 6.00 | CCCN(CCC)C(=O)C1=Cc2ccc(-c3ccc(CCC(=O)OCC)cc3)cc2N=C(N)C1 [Compound 193, Ethyl 3-(4-((1E,4E)-2-amino-4-(dipropylcarbamoyl)-3H-benzo[b]azepin-8-yl)phenyl)propanoate]
4.00 to 5.00 |  | CCCN(CCC)C(=O)C1=Cc2ccc(-c3ccc(OCC(=O)O)cc3)cc2N=C(N)C1 [Compound 196, 2-(4-((1E,4E)-2-Amino-4-(dipropylcarbamoyl)-3H-benzo[b]azepin-8-yl)phenoxy)acetic acid]
6.00 to 7.00 | 5.00 to 6.00 | CCCN(CCC)C(=O)C1=Cc2ccc(-c3ccc(OCC(=O)OCC)cc3)cc2N=C(N)C1 [Compound 197, Ethyl 2-(4-((1E,4E)-2-amino-4-(dipropylcarbamoyl)-3H-benzo[b]azepin-8-yl)phenoxy)acetate]
6.00 to 7.00 |  | CCCN(CCC)C(=O)C1=Cc2ccc(-c3cccc(CC(=O)OCC)c3)cc2N=C(N)C1 [Compound 205, Ethyl 2-(3-((1E,4E)-2-amino-4-(dipropylcarbamoyl)-3H-benzo[b]azepin-8-yl)phenyl)acetate]
7.00 to 9.00 |  | CCCN(CCCO)C(=O)C1=Cc2ccc(-c3ccc(CC(=O)OCC4CC4)cc3)cc2N=C(N)C1 [Compound 217, Cyclopropylmethyl 2-(4-((1E,4E)-2-amino-4-((3-hydroxypropyl)(propyl)carbamoyl)-3H-benzo[b]azepin-8-yl)phenyl)acetate]
6.00 to 7.00 |  | CCCN(CCC)C(=O)C1=Cc2ccc(-c3ccc(OS(=O)(=O)C(F)(F)F)cc3)cc2N=C(N)C1 [Compound 226, 4-((1E,4E)-2-amino-4-(dipropylcarbamoyl)-3H-benzo[b]azepin-8-yl)phenyl trifluoromethanesulfonate]
